The results in this text go back to patent publication US9708318B2, “Bicyclic heterocycles as FGFR4 inhibitors” (Incyte Corporation, priority 2015, dated 2017).

For one experiment, the target named is FGFR3 enzyme (Homo sapiens (Human), UniProt P22607). The experiment in a line: FGFR Enzymatic Assay (FRET peptide phosphorylation), FGFR3. The following applies: for FGFR1/FGFR3 IC50 ratio / FGFR4/FGFR3 IC50 ratio: FGFR3 selectivity; for IC50: read-out: FGFR3 IC50. In kind it is biochemical. The protocol:
(§1) The inhibitor potency of the exemplified compounds was measured in an enzyme assay that measures peptide phosphorylation using FRET measurements to detect product formation. Inhibitors were serially diluted in DMSO and a volume of 0.5 μL was transferred to the wells of a 384-well plate.
(§2) GraphPad prism3 was used to analyze the data.

The target of a further experiment is FGFR2 (Homo sapiens (Human), UniProt P21802). The experiment in a line: FGFR Enzymatic Assay (FRET peptide phosphorylation), FGFR2. The class given is biochemical. The protocol: as §1
Sequence of FGFR2 (P21802 22-821): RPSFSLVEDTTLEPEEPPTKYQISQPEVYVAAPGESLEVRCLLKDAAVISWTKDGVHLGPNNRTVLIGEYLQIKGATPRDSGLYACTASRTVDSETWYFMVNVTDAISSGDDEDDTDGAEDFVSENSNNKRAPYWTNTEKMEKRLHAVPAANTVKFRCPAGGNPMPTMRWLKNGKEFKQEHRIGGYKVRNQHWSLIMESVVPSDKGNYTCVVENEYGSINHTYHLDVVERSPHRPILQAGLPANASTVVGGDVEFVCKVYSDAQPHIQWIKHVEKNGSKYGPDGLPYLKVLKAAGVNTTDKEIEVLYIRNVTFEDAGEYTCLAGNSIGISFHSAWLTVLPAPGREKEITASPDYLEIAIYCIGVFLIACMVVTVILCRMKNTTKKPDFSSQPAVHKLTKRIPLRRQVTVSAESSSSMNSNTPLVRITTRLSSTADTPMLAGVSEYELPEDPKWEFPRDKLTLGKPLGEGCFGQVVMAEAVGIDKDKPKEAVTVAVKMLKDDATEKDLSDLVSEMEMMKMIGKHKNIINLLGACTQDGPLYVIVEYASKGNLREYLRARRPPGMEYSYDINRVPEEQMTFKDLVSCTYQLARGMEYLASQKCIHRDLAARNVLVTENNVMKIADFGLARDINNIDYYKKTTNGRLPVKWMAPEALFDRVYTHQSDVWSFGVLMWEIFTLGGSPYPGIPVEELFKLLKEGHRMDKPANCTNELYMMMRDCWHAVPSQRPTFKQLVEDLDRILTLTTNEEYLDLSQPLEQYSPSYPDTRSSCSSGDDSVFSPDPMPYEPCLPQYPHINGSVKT
(§3) The enzymes were purchased from Millipore or Invitrogen.
as §2

The next experiment concerns the target FGFR1 (Homo sapiens (Human), UniProt P11362). The experiment in a line: FGFR Enzymatic Assay (FRET peptide phosphorylation), FGFR1.
The next experiment deals with FGFR4 (Homo sapiens (Human), UniProt P22455). The experiment in a line: FGFR Enzymatic Assay (FRET peptide phosphorylation), FGFR4. The class given is biochemical. The protocol:
as §1, §3, §2

Where [1] appears, read: FGFR1 IC50 (nM), pre-incubated for 4 hours.
Setting [2] is: pre-incubated for 5 to 10 minutes.

Read-outs that look alike come from different tables or passages of the source.

Sequence of FGFR3 enzyme (P22607 23-806): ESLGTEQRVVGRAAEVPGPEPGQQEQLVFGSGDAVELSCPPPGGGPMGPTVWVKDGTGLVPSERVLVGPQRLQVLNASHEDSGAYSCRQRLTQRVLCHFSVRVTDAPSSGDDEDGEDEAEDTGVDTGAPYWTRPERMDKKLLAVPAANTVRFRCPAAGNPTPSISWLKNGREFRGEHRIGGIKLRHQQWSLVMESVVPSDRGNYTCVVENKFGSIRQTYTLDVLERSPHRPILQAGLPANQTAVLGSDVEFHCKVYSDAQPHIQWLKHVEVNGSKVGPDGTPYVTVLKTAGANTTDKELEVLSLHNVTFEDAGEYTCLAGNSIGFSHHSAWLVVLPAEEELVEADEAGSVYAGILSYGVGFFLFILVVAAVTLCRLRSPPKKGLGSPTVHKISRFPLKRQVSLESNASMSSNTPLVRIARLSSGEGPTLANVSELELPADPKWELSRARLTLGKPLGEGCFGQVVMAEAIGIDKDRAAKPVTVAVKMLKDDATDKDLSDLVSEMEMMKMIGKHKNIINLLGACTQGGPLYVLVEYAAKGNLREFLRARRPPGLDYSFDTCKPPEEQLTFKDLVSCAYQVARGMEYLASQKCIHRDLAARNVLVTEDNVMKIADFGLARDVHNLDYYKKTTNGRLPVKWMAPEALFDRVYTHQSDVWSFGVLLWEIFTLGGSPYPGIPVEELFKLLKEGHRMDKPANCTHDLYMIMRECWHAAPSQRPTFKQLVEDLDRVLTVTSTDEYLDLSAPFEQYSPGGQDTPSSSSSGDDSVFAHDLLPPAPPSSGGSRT
Sequence of FGFR1 (P11362 22-822): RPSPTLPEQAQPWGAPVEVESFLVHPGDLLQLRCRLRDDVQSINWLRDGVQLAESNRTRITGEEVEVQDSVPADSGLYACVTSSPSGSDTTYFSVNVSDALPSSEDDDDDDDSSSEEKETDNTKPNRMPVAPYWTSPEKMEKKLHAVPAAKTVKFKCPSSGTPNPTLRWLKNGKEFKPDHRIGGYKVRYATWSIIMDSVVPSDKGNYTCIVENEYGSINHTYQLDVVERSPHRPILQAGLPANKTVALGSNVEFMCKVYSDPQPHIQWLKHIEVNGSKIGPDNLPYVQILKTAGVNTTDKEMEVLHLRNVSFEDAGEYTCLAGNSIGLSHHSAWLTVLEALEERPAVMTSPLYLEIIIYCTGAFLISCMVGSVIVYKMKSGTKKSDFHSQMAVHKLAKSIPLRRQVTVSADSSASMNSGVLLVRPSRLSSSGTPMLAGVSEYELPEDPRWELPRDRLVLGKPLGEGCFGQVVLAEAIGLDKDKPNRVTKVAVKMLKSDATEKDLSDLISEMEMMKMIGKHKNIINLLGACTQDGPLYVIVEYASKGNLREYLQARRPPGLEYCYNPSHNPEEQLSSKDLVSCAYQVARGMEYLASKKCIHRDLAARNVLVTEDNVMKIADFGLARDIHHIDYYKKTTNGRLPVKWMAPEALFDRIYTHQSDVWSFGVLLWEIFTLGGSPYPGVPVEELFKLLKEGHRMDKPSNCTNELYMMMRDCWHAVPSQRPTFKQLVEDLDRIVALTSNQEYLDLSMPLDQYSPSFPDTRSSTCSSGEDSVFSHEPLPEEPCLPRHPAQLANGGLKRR
Sequence of FGFR4 (P22455 22-802): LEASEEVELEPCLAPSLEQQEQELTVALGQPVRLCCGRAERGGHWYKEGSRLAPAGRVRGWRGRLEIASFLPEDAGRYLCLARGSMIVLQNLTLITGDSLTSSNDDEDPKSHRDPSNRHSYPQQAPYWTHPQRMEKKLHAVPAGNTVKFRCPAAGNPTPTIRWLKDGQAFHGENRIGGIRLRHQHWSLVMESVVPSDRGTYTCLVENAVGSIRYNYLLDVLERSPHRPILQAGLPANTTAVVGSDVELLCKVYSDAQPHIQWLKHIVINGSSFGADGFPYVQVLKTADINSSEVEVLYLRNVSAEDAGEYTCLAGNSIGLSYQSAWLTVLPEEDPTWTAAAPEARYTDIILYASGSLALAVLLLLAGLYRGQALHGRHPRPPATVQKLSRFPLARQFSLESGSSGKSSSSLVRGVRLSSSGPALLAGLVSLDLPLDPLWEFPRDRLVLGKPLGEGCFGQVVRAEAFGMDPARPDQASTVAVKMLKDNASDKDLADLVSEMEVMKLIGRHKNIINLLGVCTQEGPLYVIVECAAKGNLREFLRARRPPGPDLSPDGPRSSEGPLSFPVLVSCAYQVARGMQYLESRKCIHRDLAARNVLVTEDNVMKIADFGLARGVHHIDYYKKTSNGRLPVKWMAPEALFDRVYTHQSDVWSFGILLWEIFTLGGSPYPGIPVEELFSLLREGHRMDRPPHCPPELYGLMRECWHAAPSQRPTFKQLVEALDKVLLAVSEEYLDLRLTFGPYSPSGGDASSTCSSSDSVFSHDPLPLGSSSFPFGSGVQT

Turning to `COc1cc(OC)c(F)c(N2Cc3cnc(-c4cn(C)nc4C)cc3N(Cc3cnn(C)c3)C2=O)c1F` [Example 72, 3-(2,6-difluoro-3,5-dimethoxyphenyl)-7-(1,3-dimethyl-1H-pyrazol-4-yl)-1-((1-methyl-1H-pyrazol-4-yl)methyl)-3,4-dihydropyrido[4,3-d]pyrimidin-2(1H)-one], the “FGFR1/FGFR3 IC50 ratio” value at FGFR3 enzyme (pre-incubated for 4 hours) is on record as above 5. Moreover, on FGFR3 enzyme (pre-incubated for 4 hours), the “FGFR4/FGFR3 IC50 ratio” value was above 10. The IC50 was below 0.01 µM at FGFR3 enzyme (pre-incubated for 4 hours); below 0.01 µM against FGFR2 (pre-incubated for 4 hours); below 10 nM at FGFR1 (read-out: FGFR1 IC50, pre-incubated for 4 hours); below 0.01 µM on FGFR4 (pre-incubated for 4 hours).

For the molecule `COc1cc(OC)c(F)c(N2Cc3cnc(-c4ccc(C5(C#N)CCC5)nc4)cc3N(c3cnn(C)c3)C2=O)c1F` [Example 188, 1-{5-[3-(2,6-difluoro-3,5-dimethoxyphenyl)-1-(1-methyl-1H-pyrazol-4-yl)-2-oxo-1,2,3,4-tetrahydropyrido[4,3-d]pyrimidin-7-yl]pyridin-2-yl}cyclobutanecarbonitrile], the “FGFR1/FGFR3 IC50 ratio” value at FGFR3 enzyme (pre-incubated for 4 hours) is above 5. Besides, on FGFR3 enzyme (pre-incubated for 4 hours), the “FGFR4/FGFR3 IC50 ratio” value is on record as above 5. The IC50 was in the range of 0.01 to 0.03 µM at FGFR3 enzyme (pre-incubated for 4 hours), 0.01 to 0.03 µM at FGFR2 (pre-incubated for 4 hours), 30 to 200 nM against FGFR1 (setting [1]) and 0.03 to 0.2 µM against FGFR4 (pre-incubated for 4 hours).

Regarding `COc1cc(OC)c(F)c(N2Cc3cnc(-c4cn(CCN(C)C)nc4C)cc3C3(CC3)C2=O)c1F` [Example 164, 2′-(2,6-difluoro-3,5-dimethoxyphenyl)-6′-(1-(2-(dimethylamino)ethyl)-3-methyl-1H-pyrazol-4-yl)-1′H-spiro[cyclopropane-1,4′-[2,7]naphthyridin]-3′(2′H)-one], the “FGFR1/FGFR3 IC50 ratio” value on FGFR3 enzyme (pre-incubated for 4 hours) was above 3. The “FGFR4/FGFR3 IC50 ratio” value at FGFR3 enzyme (pre-incubated for 4 hours) is recorded as above 3. Also, the 50% inhibitory concentration (IC50) lay in the range of 0.01 to 0.03 µM at FGFR3 enzyme (pre-incubated for 4 hours), 0.01 to 0.03 µM against FGFR2 (pre-incubated for 4 hours), 30 to 200 nM on FGFR1 (setting [1]) and 0.03 to 0.2 µM at FGFR4 (pre-incubated for 4 hours).

Consider `COc1cc(OC)c(F)c(N2Cc3cnc(-c4cn(C)nc4C)cc3N(Cc3ccnc(C)n3)C2=O)c1F` [Example 121, 3-(2,6-difluoro-3,5-dimethoxyphenyl)-7-(1,3-dimethyl-1H-pyrazol-4-yl)-1-((2-methylpyrimidin-4-yl)methyl)-3,4-dihydropyrido[4,3-d]pyrimidin-2(1H)-one], for which the IC50 at FGFR3 enzyme (setting [2]) is below 0.01 µM; at FGFR2 (setting [2]) it was below 0.01 µM; at FGFR1 (FGFR1 IC50 (nM), pre-incubated for 5 to 10 minutes), 10 to 30 nM; on FGFR4 (setting [2]) it was 0.03 to 0.2 µM.

In the case of `COc1cc(OC)c(F)c(N2Cc3cnc(-c4csc(N(C)C)n4)cc3C3(CC3)C2=O)c1F` [Example 160, 2′-(2,6-difluoro-3,5-dimethoxyphenyl)-6′-(2-(dimethylamino)thiazol-4-yl)-1′H-spiro[cyclopropane-1,4′-[2,7]naphthyridin]-3′(2′H)-one], on FGFR3 enzyme (pre-incubated for 4 hours), the “FGFR1/FGFR3 IC50 ratio” value is listed as above 5. Besides, the “FGFR4/FGFR3 IC50 ratio” value at FGFR3 enzyme (pre-incubated for 4 hours) is above 5. Also, the IC50 at FGFR3 enzyme (pre-incubated for 4 hours) was below 0.01 µM; on FGFR2 (pre-incubated for 4 hours), below 0.01 µM; against FGFR1 (setting [1]), 10 to 30 nM; against FGFR4 (pre-incubated for 4 hours), 0.01 to 0.03 µM.

Turning to `COc1cc(OC)c(F)c(N2Cc3cnc(-c4cn(C)nc4C)cc3N(c3cc(F)cc(F)c3)C2=O)c1F` [Example 103, 3-(2,6-difluoro-3,5-dimethoxyphenyl)-1-(3,5-difluorophenyl)-7-(1,3-dimethyl-1H-pyrazol-4-yl)-3,4-dihydropyrido[4,3-d]pyrimidin-2(1H)-one], the “FGFR1/FGFR3 IC50 ratio” value at FGFR3 enzyme (pre-incubated for 4 hours) is listed as above 3. Further, at FGFR3 enzyme (pre-incubated for 4 hours), the “FGFR4/FGFR3 IC50 ratio” value is recorded as above 5. Besides, the 50% inhibitory concentration (IC50) is 0.01 to 0.03 µM on FGFR3 enzyme (pre-incubated for 4 hours), 0.01 to 0.03 µM against FGFR2 (pre-incubated for 4 hours), 30 to 200 nM at FGFR1 (setting [1]) and 0.03 to 0.2 µM at FGFR4 (pre-incubated for 4 hours).

On to `COc1cc(OC)c(F)c(N2Cc3cnc(-c4cn(C)nc4C)cc3N(C3CCCC3)C2=O)c1F` [Example 32, 1-cyclopentyl-3-(2,6-difluoro-3,5-dimethoxyphenyl)-7-(1,3-dimethyl-1H-pyrazol-4-yl)-3,4-dihydropyrido[4,3-d]pyrimidin-2(1H)-one], for which the “FGFR1/FGFR3 IC50 ratio” value at FGFR3 enzyme (pre-incubated for 4 hours) was above 1. Moreover, the “FGFR4/FGFR3 IC50 ratio” value on FGFR3 enzyme (pre-incubated for 4 hours) was above 5. In addition, the IC50 is below 0.01 µM at FGFR3 enzyme (pre-incubated for 4 hours), below 0.01 µM against FGFR2 (pre-incubated for 4 hours), 10 to 30 nM against FGFR1 (setting [1]) and 0.01 to 0.03 µM on FGFR4 (pre-incubated for 4 hours).

The IC50 is the concentration that gives 50% inhibition.
